SMILES strings stand for the structures. ≈ marks a conversion by molar mass, not a printed value. Bounds are passed on as bounds.

Results on five molecules are retold here after patent US20240074997A1 (priority 2022, published 2024).

The conditions of series [1]: cited from earlier work.
The next series concerns the target T1, glucocorticoid receptor (Homo sapiens, UniProt P04150).
T1 sequence (P04150 1-777): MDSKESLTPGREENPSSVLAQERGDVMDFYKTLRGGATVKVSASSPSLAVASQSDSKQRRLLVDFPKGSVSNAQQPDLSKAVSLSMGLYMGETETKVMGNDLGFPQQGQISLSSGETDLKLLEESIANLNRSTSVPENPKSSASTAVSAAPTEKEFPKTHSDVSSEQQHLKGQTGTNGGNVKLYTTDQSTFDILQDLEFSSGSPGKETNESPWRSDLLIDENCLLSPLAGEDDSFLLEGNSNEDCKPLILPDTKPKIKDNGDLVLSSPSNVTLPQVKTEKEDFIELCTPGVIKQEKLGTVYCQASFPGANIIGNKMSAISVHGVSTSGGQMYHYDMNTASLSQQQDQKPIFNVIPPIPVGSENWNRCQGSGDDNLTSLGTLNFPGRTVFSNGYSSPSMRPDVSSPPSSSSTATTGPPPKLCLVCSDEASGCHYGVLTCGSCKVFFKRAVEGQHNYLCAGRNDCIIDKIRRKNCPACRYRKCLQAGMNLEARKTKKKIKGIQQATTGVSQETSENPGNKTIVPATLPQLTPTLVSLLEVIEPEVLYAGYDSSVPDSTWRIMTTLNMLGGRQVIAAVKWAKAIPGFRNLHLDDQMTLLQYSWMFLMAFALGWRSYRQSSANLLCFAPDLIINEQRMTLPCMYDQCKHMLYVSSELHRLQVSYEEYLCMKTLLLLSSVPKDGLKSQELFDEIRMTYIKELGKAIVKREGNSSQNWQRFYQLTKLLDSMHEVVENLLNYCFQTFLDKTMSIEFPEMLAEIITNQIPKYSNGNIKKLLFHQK
Conditions: cited from earlier work.

The conditions of series [2]: cited from earlier work. This is another data set of the same source.
The target in a further series is T2, RARγ (Homo sapiens, UniProt P13631).
T2 sequence (P13631 1-454): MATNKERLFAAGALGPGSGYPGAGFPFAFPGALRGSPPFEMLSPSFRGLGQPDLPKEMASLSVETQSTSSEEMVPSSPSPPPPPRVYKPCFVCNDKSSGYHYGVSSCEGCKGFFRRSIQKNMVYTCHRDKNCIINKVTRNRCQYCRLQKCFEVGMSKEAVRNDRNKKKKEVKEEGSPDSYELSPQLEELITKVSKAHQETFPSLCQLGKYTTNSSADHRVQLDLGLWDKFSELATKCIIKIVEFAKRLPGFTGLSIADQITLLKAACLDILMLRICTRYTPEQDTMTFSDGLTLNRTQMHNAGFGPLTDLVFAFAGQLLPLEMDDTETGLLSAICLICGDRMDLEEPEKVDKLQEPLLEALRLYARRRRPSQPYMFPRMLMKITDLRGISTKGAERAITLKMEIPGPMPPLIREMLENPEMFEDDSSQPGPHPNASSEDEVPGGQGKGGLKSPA
The conditions noted are these: cited from earlier work.

The conditions of series [3]: cited from earlier work. The source holds these as a separate data set.
The conditions of series [4]: cited from earlier work. The source holds these as a separate data set.
The next series relates to RM-1 cells. The conditions noted are these: cited from earlier work.
The subject of the next series is zebrafish larvae. Nature of the series: Zebrafish inflammation model (tail fin clip, neutrophil migration). Format: in vivo. The conditions noted are these: 4 hours, clipped 3 day old larvae, p<0.001 vs. Vehicle. The source says:
The details of this model have been described previously (Xie, Y., Meijer, […]. Modeling Inflammation in Zebrafish for the Development of Anti-inflammatory Drugs. Front. Cell Dev. Biol. 8, 620984 (2021)). In short, a zebrafish model with fluorescently labeled neutrophils is used. The tip of the tail fin of 3 day old zebrafish larvae are clipped. As a result, a local inflammatory response is initiated and evokes to leukocyte migration towards the wound. The number of attracted neutrophils is recorded and serves as parameters for inflammation. […] (Significance ***: p<0.001, as determined by Student's t-Test vs. Vehicle)

In a further series the target is T3, RARβ (Homo sapiens, UniProt P10826).
T3 sequence (P10826 1-455): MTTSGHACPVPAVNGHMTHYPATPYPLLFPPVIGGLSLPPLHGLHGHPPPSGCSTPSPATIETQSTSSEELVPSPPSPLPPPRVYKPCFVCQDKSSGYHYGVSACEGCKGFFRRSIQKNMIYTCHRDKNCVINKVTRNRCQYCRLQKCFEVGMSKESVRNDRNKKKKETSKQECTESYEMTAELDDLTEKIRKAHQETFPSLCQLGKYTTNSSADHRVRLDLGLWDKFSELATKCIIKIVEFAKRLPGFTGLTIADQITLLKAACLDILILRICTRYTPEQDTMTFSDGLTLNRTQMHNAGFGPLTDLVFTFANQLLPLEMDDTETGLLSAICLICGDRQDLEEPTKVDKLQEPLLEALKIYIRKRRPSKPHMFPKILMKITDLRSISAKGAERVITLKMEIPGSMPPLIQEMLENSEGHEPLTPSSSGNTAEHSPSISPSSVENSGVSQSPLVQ
Conditions: cited from earlier work.

The target in series [5] is T4, glucocorticoid receptor recombinant human protein, ligand binding domain (Homo sapiens, UniProt P04150).
T4 construct: purchased Thermo Fisher Scientific A15668
T4 sequence (P04150 524-758 limits assumed): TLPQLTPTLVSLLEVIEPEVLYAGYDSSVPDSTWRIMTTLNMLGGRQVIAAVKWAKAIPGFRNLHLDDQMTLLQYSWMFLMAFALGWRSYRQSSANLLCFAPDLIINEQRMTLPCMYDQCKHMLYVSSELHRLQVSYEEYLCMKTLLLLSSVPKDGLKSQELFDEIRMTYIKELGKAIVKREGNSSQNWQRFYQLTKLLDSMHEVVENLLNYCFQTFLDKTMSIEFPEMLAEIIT
Nature of the series: glucocorticoid receptor LBD coregulator-derived peptide array. Format: biochemical. Conditions: Example 2, 0.1 mM vs solvent 2% DMSO, FIG. 6.
Protocol: EXAMPLE 1: Interactions between the glucocorticoid receptor ligand binding domain (LBD) and coregulator-derived peptides were determined using the method as described by Zalachoras et al 2009^xl. Each peptide array consisting of 11 coregulator peptides as described in Table 1 were incubated with a reaction mixture of 1 nM purified glucocorticoid receptor recombinant human protein, ligand binding domain, (Thermo Fisher Scientific, cat #A15668), ALEXA488-conjugated anti-Glutathione S-Transferase (GST) antibody and buffer F (PV4689, A-11131, and PV4547; Invitrogen). […] Incubation was performed at 20° C. on the peptide array, using one two arrays per condition. glucocorticoid receptor binding to each peptide on the array, reflected by fluorescent signal, was quantified by image analysis using R-based software (Precision Medicine Lab). […] Glucocorticoid receptor binding to each peptide on the array, reflected by fluorescent signal, was quantified by image analysis using R-based software (Precision Medicine Lab). […]
The use of glucocorticoid receptor LBD was as described in Experiment 1. […] Glucocorticoid receptor binding to each peptide on the array, reflected by fluorescent signal, was quantified by image analysis using R-based software (Precision Medicine Lab).

In the case of `C[C@@H]1C[C@H]2[C@@H]3C[C@H](F)C4=CC(=O)C=C[C@]4(C)[C@@]3(F)[C@@H](O)C[C@]2(C)[C@@]1(OC(=O)C1C(C)(C)C1(C)C)C(=O)OCC#N` [GW870086], the “clinical efficacy in atopic dermatitis” value in [1] (atopic dermatitis patients) is given as “did not achieve significant clinical efficacy”. The skin atrophy result in [1] (healthy adults) is given as “does not include skin atrophy”.

`C[C@H](NC(=O)[C@H]1CCCO1)[C@H](Oc1ccc(C(=O)O[C@H]2CCCN(C(=O)[C@H]3COC(=O)C3)C2)cc1)c1ccc(C2CC2)cc1` [LEO 134310]: on glucocorticoid receptor, the potency on transactivation result is on record as “lower potency” and the potency on transrepression entry is “high potency”.

For `COc1ccc(-c2ccc3cc(C(=O)O)ccc3c2)cc1C12CC3CC(CC(C3)C1)C2` [Adapalene, 6-[3-(1-adamantyl)-4-methoxyphenyl]naphthalene-2-carboxylic acid], in series [2] (25° C.), the “solubility in dimethyl sulfoxide” value is > 10000 µg/mL, the solubility in dimethylformamide is 5000 µg/mL (≈ 12.1 mM), the solubility in ethanol was < 1000 µg/mL and the solubility in tetrahydrofuran is 5000 µg/mL (≈ 12.1 mM). For the same molecule, in series [2], the solubility in water entry was “poor solubility”. Besides, at RARγ, the “affinity for RARγ” value is recorded as “high affinity”. Moreover, in [3], the pKa was 4.23, the “pKa (strongest acidic)” value is on record as 3.99 and the “pKa (strongest basic)” value is recorded as −4.8. Moreover, the “degradation in acidic condition” value in series [4] (0.3 M HCl solution, 10 min of boiling) is 28%. The “stability in alkaline condition” value in series [4] (2 M NaOH solution, boiled for 2 h) is listed as “stable”. Also, the “degradation in oxidative conditions” value in [4] (80° C. for 10 min with 30% hydrogen peroxide solution) is 30%. Besides, in [4] (254 and 366 nm, 12 h), the “degradation on exposure to UV light” value is listed as 25%. For the same molecule, the “migration ability of RM-1 cells (wound-healing assay)” value in the series on RM-1 cells (dose-dependent) is “significantly suppressed”. Further, the “invasiveness of RM-1 cells” value with RM-1 cells (high doses) is “decrease the invasiveness”. Besides, the “anti-inflammatory action (number of attracted neutrophils)” value in the series with zebrafish larvae (1 μM) is reported as “significant anti-inflammatory action”. Moreover, the “affinity for RARβ” value at RARβ is on record as “high affinity”.

With `CC1=C(/C=C/C(C)=C/C=C/C(C)=C/C(=O)O)C(C)(C)CCC1` [ATRA, all-trans retinoic acid], the “glucocorticoid receptor-modulating effect (binding profile)” value in series [5] was “does not display any glucocorticoid receptor-modulating effect”.

Take `C[C@H]1C[C@H]2[C@@H]3CCC4=CC(=O)C=C[C@]4(C)[C@@]3(Cl)[C@@H](O)C[C@]2(C)[C@@]1(O)C(=O)CO` [beclomethasone]: the “anti-inflammatory action (number of attracted neutrophils)” value in the series on zebrafish larvae (25 μM) was “significant anti-inflammatory action”.
